These results are taken from ChEMBL document CHEMBL4219059, “Synthesis and biological evaluation of cyclopeptide GG-8-6 and its analogues as anti-hepatocellular carcinoma agents” (Bioorg Med Chem, 2018).

One series relates to HepG2. The series can be described thus: Antiproliferative activity against human HepG2 cells after 24 hrs by MTT assay. In kind it is functional, cell-based. The settings on record: HepG2, 24 h. Background: Formazan colour is commonly taken as a measure of viable cells.
Series [1] relates to SMMC-7721. The series can be described thus: Antiproliferative activity against human SMMC7721 cells after 24 hrs by MTT assay. In kind it is functional, cell-based. The following applies: SMMC-7721, 24 h.
Series [2] concerns SMMC-7721. As to the kind of experiment: Cell cycle arrest in human SMMC7721 cells assessed as G2/M phase accumulation at 2.5 uM after 24 hrs by propidium iodide staining based flow cytometry relative to control. It is filed as functional. (A flow cytometer gives signals particle by particle.)
The test system of series [3] is SMMC-7721. As to the kind of experiment: Antitumor activity against human SMMC7721 cells xenografted in Balb/c nude mouse assessed as tumor growth inhibition at 8 mg/kg, ip for 32 days relative to control. In kind it is functional. The following applies: SMMC-7721, ip, 768 h, read-out: TGI. Background: In xenograft studies the graft and the host belong to different species.

Series [4] relates to SMMC-7721. As to the kind of experiment: In vivo induction of apoptosis in human SMMC7721 cells xenografted in Balb/c nude mouse at 8 to 40 mg/kg, ip for 32 days by TUNEL assay. It is filed as functional, organism-based.
In series [5] the test system is SMMC-7721. The series can be described thus: Cell cycle arrest in human SMMC7721 cells assessed as G2/M phase accumulation at 30 uM after 24 hrs by propidium iodide staining based flow cytometry relative to control. It is filed as functional.
For series [6], the system named is Mus musculus. As to the kind of experiment: Toxicity in Balb/c nude mouse xenografted with human SMMC7721 cells assessed as body weight level at 16 mg/kg, ip for 32 days (reference value: 25.4 +/- 1.8 g). In kind it is organism-based. The settings on record: in vivo, 768 h.
The subject of series [7] is SMMC-7721. As to the kind of experiment: Induction of morphological changes in tumor of human SMMC7721 cells xenografted Balb/c nude mouse induction of nuclei and cytoplasm non-uniform distribution at 40 mg/kg, ip for 32 days by hematoxylin/eosin staining based microscopic analysis. It is filed as functional, organism-based.
For series [8], the system named is SMMC-7721. As to the kind of experiment: Induction of morphological changes in tumor of human SMMC7721 cells xenografted Balb/c nude mouse assessed as appearance of shrunken nuclei at 40 mg/kg, ip for 32 days by hematoxylin/eosin staining based microscopic analysis. It is filed as functional, organism-based.
Series [9] has as its system SMMC-7721. The series can be described thus: Induction of apoptosis in human SMMC7721 cells assessed as increase in cleaved PARP protein expression after 24 hrs by Western blot method. It is filed as functional, cell-based.
Series [10] has as its system SMMC-7721. The series can be described thus: Cell cycle arrest in human SMMC7721 cells assessed as G2/M phase accumulation at 20 uM after 24 hrs by propidium iodide staining based flow cytometry relative to control. In kind it is functional.
The test system of series [11] is SMMC-7721. As to the kind of experiment: Induction of morphological changes in tumor of human SMMC7721 cells xenografted Balb/c nude mouse assessed as reduction in number of nuclei at 40 mg/kg, ip for 32 days by hematoxylin/eosin staining based microscopic analysis. In kind it is functional, organism-based.
Series [12] deals with SMMC-7721. As to the kind of experiment: Antitumor activity against human SMMC7721 cells xenografted in Balb/c nude mouse assessed as tumor growth inhibition at 16 mg/kg, ip for 32 days relative to control. The settings on record: SMMC-7721, ip, 768 h, read-out: TGI. In kind it is functional.
The subject of series [13] is Mus musculus. As to the kind of experiment: Toxicity in Balb/c nude mouse xenografted with human SMMC7721 cells assessed as body weight level at 40 mg/kg, ip for 32 days (reference value: 25.4 +/- 1.8 g). It is filed as organism-based. The following applies: in vivo, 768 h.
For series [14], the system named is SMMC-7721. As to the kind of experiment: Induction of apoptosis in human SMMC7721 cells assessed as increase in cleaved caspase-9 protein expression after 24 hrs by Western blot method. It is filed as functional, cell-based.
Series [15] relates to SMMC-7721. The series can be described thus: Induction of apoptosis in human SMMC7721 cells assessed as early apoptotic cells at 30 uM after 24 hrs by Annexin V-FITC/propidium iodide staining based flow cytometry (reference value: 2%). In kind it is functional.
For series [16], the system named is SMMC-7721. The series can be described thus: Induction of apoptosis in human SMMC7721 cells assessed as late apoptotic cells at 30 uM after 24 hrs by Annexin V-FITC/propidium iodide staining based flow cytometry (reference value: 0.7%). It is filed as functional.
In series [17] the test system is SMMC-7721. As to the kind of experiment: In vivo induction of apoptosis in human SMMC7721 cells xenografted in Balb/c nude mouse assessed as activation of caspase-3 dosed intraperitoneally for 32 days by IHC analysis. It is filed as functional, organism-based.
The subject of series [18] is SMMC-7721. As to the kind of experiment: Induction of apoptosis in human SMMC7721 cells assessed as chromatin condensation at 10 to 30 uM after 24 hrs by DAPI staining based laser confocal microscopy. It is filed as functional, cell-based.
In series [19] the test system is SMMC-7721. The series can be described thus: Induction of apoptosis in human SMMC7721 cells assessed as late apoptotic cells at 10 uM after 24 hrs by Annexin V-FITC/propidium iodide staining based flow cytometry (reference value: 0.7%). It is filed as functional.
In series [20] the test system is SMMC-7721. The series can be described thus: Induction of apoptosis in human SMMC7721 cells assessed as increase in cleaved caspase-8 protein expression after 24 hrs by Western blot method. It is filed as functional, cell-based.
Series [21] relates to SMMC-7721. As to the kind of experiment: Induction of apoptosis in human SMMC7721 cells assessed as increase in cleaved caspase-3 protein expression after 24 hrs by Western blot method. In kind it is functional, cell-based.
The test system of series [22] is Mus musculus. As to the kind of experiment: Toxicity in Balb/c nude mouse xenografted with human SMMC7721 cells assessed as body weight level at 8 mg/kg, ip for 32 days (reference value: 25.4 +/- 1.8 g). It is filed as organism-based. The following applies: in vivo, 768 h.
Series [23] relates to SMMC-7721. The series can be described thus: Induction of apoptosis in human SMMC7721 cells assessed as early apoptotic cells at 20 uM after 24 hrs by Annexin V-FITC/propidium iodide staining based flow cytometry (reference value: 2%). In kind it is functional.
The test system of series [24] is SMMC-7721. As to the kind of experiment: Induction of apoptosis in human SMMC7721 cells assessed as late apoptotic cells at 20 uM after 24 hrs by Annexin V-FITC/propidium iodide staining based flow cytometry (reference value: 0.7%). It is filed as functional.
The subject of series [25] is SMMC-7721. The series can be described thus: Antitumor activity against human SMMC7721 cells xenografted in Balb/c nude mouse assessed as tumor growth inhibition dosed intraperitoneally for 32 days. It is filed as functional, organism-based.
Series [26] deals with SMMC-7721. The series can be described thus: Antitumor activity against human SMMC7721 cells xenografted in Balb/c nude mouse assessed as tumor growth inhibition at 40 mg/kg, ip for 32 days relative to control. In kind it is functional. The settings on record: SMMC-7721, ip, 768 h, read-out: TGI.
The subject of series [27] is SMMC-7721. As to the kind of experiment: Induction of apoptosis in human SMMC7721 cells assessed as early apoptotic cells at 10 uM after 24 hrs by Annexin V-FITC/propidium iodide staining based flow cytometry (reference value: 2%). In kind it is functional.
In series [28] the test system is SMMC-7721. As to the kind of experiment: Cell cycle arrest in human SMMC7721 cells assessed as G2/M phase accumulation at 10 uM after 24 hrs by propidium iodide staining based flow cytometry relative to control. It is filed as functional.

pIC50: −log10 of the molar value. Active and inactive are the calls of the source. The calls are words filed in the database; no cut-off is given here. Peptide text beside a SMILES is read from it. A value given as a limit tells only on which side of the number the result lay.

The pIC50 is the negative decadic logarithm of the IC50, by convention in mol/L. In the case of `CC[C@H](C)[C@@H]1NC(=O)[C@@H]2CCCN2C(=O)[C@H](CC(C)C)NC(=O)[C@H](C(C)C)NC(=O)[C@H](CC(C)C)NC(=O)[C@H](C(C)C)NC(=O)[C@H](CC(C)C)NC1=O` (cyclo(ILVLVLP)), the pIC50 with HepG2 and in the series on SMMC-7721 [1] was less than 4.00 each time.
As to `COc1cc([C@@H]2c3cc4c(cc3[C@@H](O[C@@H]3O[C@@H]5CO[C@@H](C)O[C@H]5[C@H](O)[C@H]3O)[C@H]3COC(=O)[C@H]23)OCO4)cc(OC)c1O` [ETOPOSIDE], the Activity in the series with SMMC-7721 [2] is listed as 44.9%.
As for `CC[C@H](C)[C@@H]1NC(=O)[C@@H]2CCCN2C(=O)[C@H](CC(C)C)NC(=O)[C@H](C(C)C)NC(=O)[C@H](CC(C)C)NC(=O)[C@H](C)NC(=O)[C@H](CC(C)C)NC(=O)[C@H](CC(C)C)NC(=O)[C@H](CC(C)C)NC1=O` (cyclo(ALVLPILLL)), the pIC50 in the series with HepG2 is 4.39; in the series with SMMC-7721 [1], 4.32.
On to `CC[C@H](C)[C@@H]1NC(=O)[C@@H]2CCCN2C(=O)[C@H](CC(C)C)NC(=O)[C@H](C(C)C)NC(=O)[C@H](CC(C)C)NC(=O)[C@H](C(C)C)NC(=O)[C@H](CC(C)C)NC(=O)[C@H](CC(C)C)NC(=O)[C@H](C)NC1=O` (cyclo(ALLVLVLPI)), for which the pIC50 in the series with HepG2 was less than 4.00; in the series with SMMC-7721 [1], 4.53.
Consider `CC[C@H](C)[C@@H]1NC(=O)[C@@H]2CCCN2C(=O)[C@H](CC(C)C)NC(=O)[C@H](C(C)C)NC(=O)[C@H](C)NC(=O)[C@H](C(C)C)NC(=O)[C@H](CC(C)C)NC(=O)[C@H](CC(C)C)NC(=O)[C@H](CC(C)C)NC1=O` (cyclo(AVLPILLLV)), for which the negative-log IC50 (pIC50) in the series on HepG2 and with SMMC-7721 [1] was 4.41 in each case.
As for `CC(C)C[C@@H]1NC(=O)[C@H](C)NC(=O)[C@@H]2CCCN2C(=O)[C@H](CC(C)C)NC(=O)[C@H](C(C)C)NC(=O)[C@H](CC(C)C)NC(=O)[C@H](C(C)C)NC(=O)[C@H](CC(C)C)NC(=O)[C@H](CC(C)C)NC1=O` (cyclo(ALLLVLVLP)), the pIC50 with HepG2 was 4.25; in the series with SMMC-7721 [1] it was 4.44.
In the case of `CC[C@H](C)[C@@H]1NC(=O)[C@@H]2CCCN2C(=O)[C@H](CC(C)C)NC(=O)[C@H](C(C)C)NC(=O)[C@H](CC(C)C)NC(=O)[C@H](C(C)C)NC(=O)[C@H](CC(C)C)NC(=O)[C@H](CC(C)C)NC(=O)[C@H](CC(C)C)NC1=O` (cyclo(ILLLVLVLP)), the inhibition in vivo at 8 mg/kg in the series with SMMC-7721 [3] was 26.1%. Also, the Activity entry in the series with SMMC-7721 [4] was “Dose-dependent effect”; with SMMC-7721 [5] it was 12%; in the series on Mus musculus [6], 22.7 g; in the series with SMMC-7721 [9], “Dose-dependent effect”; with SMMC-7721 [10], 9.6%; with Mus musculus [13] it was 21.1 g. Further, the Activity result in the series with SMMC-7721 [14] was “Dose-dependent effect”; in the series on SMMC-7721 [15] it was 84.5 - 86.5%; with SMMC-7721 [16], 2.6%; in the series with SMMC-7721 [17], “Dose-dependent effect”; with SMMC-7721 [19], 0.4%; in the series with SMMC-7721 [20], “Dose-dependent effect”. Further, the Activity entry was “Dose-dependent effect” in the series with SMMC-7721 [21]; 22.2 g with Mus musculus [22]; 36.6 - 38.6% in the series with SMMC-7721 [23]; 2.8% with SMMC-7721 [24]; 1.6 - 3.6% in the series with SMMC-7721 [27]; 5.9% in the series on SMMC-7721 [28]. The outcome in the series on SMMC-7721 [7], with SMMC-7721 [8], in the series with SMMC-7721 [11] and with SMMC-7721 [18] was Active. The inhibition in vivo at 16 mg/kg in the series with SMMC-7721 [12] is 57%. Further, the pIC50 with HepG2 was 4.91; with SMMC-7721 [1] it was 5.20. Besides, the TGI result in the series on SMMC-7721 [25] was “Dose-dependent effect”. For the same molecule, the inhibition in vivo at 40 mg/kg in the series with SMMC-7721 [26] came out at 67.9%.
